Assay results from patent publication US20250059166A1, “PIPERIDINYLPYRIDINYLCARBONITRILE DERIVATIVES AS INHIBITORS OF GLUTAMINYL-PEPTIDE CYCLOTRANSFERASE AND GLUTAMINYL-PEPTIDE CYCLOTRANSFERASE LIKE PROTEIN” (Boehringer Ingelheim International GmbH, priority 2023, published 2025).

Tests used:
QPCTL = target: T1, QPCTL (Homo sapiens, UniProt Q9NXS2); assay: Assay A: biochemical QPCTL activity assay (MALDI-TOF MS, CD47 peptide substrate); details: compounds of the invention; 0.5 nM enzyme, 10 μM CD47 peptide substrate; read-out: Inhibition of QPCTL: IC50
T1 construct: made in house
Protocol: (§1) QPCT or QPCTL dependent conversion of N-terminal glutamine to pyroglutamate of CD47 was monitored via MALDI-TOF MS. Test compounds were dissolved in 100% DMSO and serially diluted into clear 1,536-well microtiter plates. Enzymatic reactions were set up in assay buffer containing 20 mM Tris pH 7.5, 0.1 mM TCEP, 0.01% BSA, and 0.001% Tween20. […] The plates were incubated for 10 min in a humidified incubator at 24° C. Subsequently, 2.5 μL of CD47 peptide substrate surrogate (^19[…]^33) was added to each well (final concentration: 10 μM for QPCTL/20 μM for QPCT). The plates were mixed for 30 sec at 1,000 rpm and subsequently incubated for 40 min in a humidified incubator at 24° C. […] The plates were sealed with an adhesive foil, mixed for 30 s at 1,000 rpm and stored at room temperature until preparation of the MALDI target plates. […] QPCT or QPCTL activity was monitored by calculating the ratio between product and internal standard signals followed by normalization to high (100% activity) and low (0% activity) controls. Determination of compound potencies was obtained by fitting the dose-response data to a four-parameter logistical equation.

QPCT = target: T2, QPCT (Homo sapiens, UniProt Q16769); assay: Assay A: biochemical QPCT activity assay (MALDI-TOF MS, CD47 peptide substrate); details: compounds of the invention; 0.5 nM enzyme, 20 μM CD47 peptide substrate; read-out: Inhibition of QPCT: IC50
T2 construct: purchased Origine (so in the source)
Protocol: as §1

[1] = system: SIRPα signalling induced by Raji cells; assay: Assay B: SIRPα signalling assay using Raji cells; type: cell-based; details: Homo sapiens; compounds of the invention; Raji cells 48 h, Jurkat PathHunter SIRPαV1 reporter cells 5 h; read-out: Inhibition of SIRPα signalling induced by Raji cells: IC50
Protocol: (§2) Two cell types are independently used: the Raji cell line (lymphoblast-like human cell line derived from B lymphocytes from a Burkitt's lymphoma patient in 1963) and A549 cells (adenocarcinoma human alveolar basal epithelial cells).
(§3) Test compounds were dissolved in 100% DMSO and serially diluted into a white 384-well microtiter cell culture plate (PerkinElmer #60076780 in case of Raji assay; PDL-coated plates Greiner #781945 in case of A549 assay). 5000 Raji cells (ATCC #CC86) or 5000 A549 cells (ATCC #CCL-185) in Assay Complete Cell Plating reagent 30 (DiscoverX 93-0563R30B) were added per well. The assay plate was incubated for 48 h at 37° C., 95% humidity and 5% CO2. 15000 reporter cells (Jurkat PathHunter SIRPαV1, DiscoverX #93-1135C19) were added to each well, and the plate was incubated for 5 h at 37° C., 95% humidity and 5% CO2. Bioassay reagent 1 of the PathHunter Bioassay detection kit (DiscoverX 93-0001) was added to each well of the plate using a multichannel pipette followed by a 15 min incubation at room temperature. Afterwards bioassay reagent 2 was added followed by 60 min incubation at room temperature (incubation in the dark).
(§4) The analysis of the data was performed using the luminescence signal generated by beta-galactosidase in the PathHunter reporter cell line. The luminescence measurement was done using a Pherastar Multi-Mode Reader. Dose-response curves & IC50 data were calculated with 4-parameter sigmoidal dose response formula.

[2] = system: SIRPα signalling induced by A549 cells; assay: Assay B: SIRPα signalling assay using A549 cells; type: cell-based; details: Homo sapiens; compounds of the invention; A549 cells 48 h, Jurkat PathHunter SIRPαV1 reporter cells 5 h; read-out: Inhibition of SIRPα signalling induced by A549 cells: IC50
Protocol: as §2, §3, §4

[3] = Assay C: permeability in CACO-2 cells; type: in vitro ADME; details: human, pH 7.2, compounds of the invention; for efflux ratio at 2 h: Caco-2, permeability B-A / permeability A-B; for Papp A→B at 2 h: Caco-2, apical to basolateral
Protocol: Caco-2 cells (1-2×10^5 cells/1 cm^2 area) are seeded on filter inserts (Costar transwell polycarbonate or PET filters, 0.4 μm pore size) and cultured (DMEM) for 10 to 25 days. Compounds are dissolved in appropriate solvent (like DMSO, 1-20 mM stock solutions). […] The transport solution (TL) is applied to the apical or basolateral donor side for measuring A-B or B-A permeability (3 filter replicates), respectively. Samples are collected at the start and end of experiment from the donor and at various time intervals for up to 2 hours also from the receiver side for concentration measurement by HPLC-MS/MS or scintillation counting. Sampled receiver volumes are replaced with fresh receiver solution.
Efflux ratio(ER)=permeabilityB−A/permeabilityA−B

T1 sequence (Q9NXS2 whole entry): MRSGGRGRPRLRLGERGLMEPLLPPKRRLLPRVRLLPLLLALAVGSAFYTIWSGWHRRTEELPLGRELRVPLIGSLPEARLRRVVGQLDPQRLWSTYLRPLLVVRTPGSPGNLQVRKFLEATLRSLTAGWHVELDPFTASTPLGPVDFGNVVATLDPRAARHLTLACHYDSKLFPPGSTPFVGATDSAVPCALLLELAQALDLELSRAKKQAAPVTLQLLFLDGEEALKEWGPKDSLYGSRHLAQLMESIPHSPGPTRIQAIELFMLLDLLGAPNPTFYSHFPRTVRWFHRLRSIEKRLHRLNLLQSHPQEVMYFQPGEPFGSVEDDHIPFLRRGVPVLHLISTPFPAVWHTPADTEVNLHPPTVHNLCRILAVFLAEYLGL
T2 sequence (Q16769 29-361): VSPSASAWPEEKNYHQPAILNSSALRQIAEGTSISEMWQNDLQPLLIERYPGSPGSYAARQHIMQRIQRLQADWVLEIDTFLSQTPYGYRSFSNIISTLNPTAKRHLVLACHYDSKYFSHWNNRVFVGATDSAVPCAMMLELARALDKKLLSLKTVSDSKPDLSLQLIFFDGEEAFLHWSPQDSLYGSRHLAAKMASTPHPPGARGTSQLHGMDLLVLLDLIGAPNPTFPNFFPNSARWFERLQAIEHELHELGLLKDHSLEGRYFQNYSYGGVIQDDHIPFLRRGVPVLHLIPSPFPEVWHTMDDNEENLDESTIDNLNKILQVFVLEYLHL

Row | SMILES | IC50 (QPCTL) | IC50 (QPCT) | IC50 [1] | IC50 [2] | efflux ratio at 2 h [3] | Papp A→B at 2 h [3]
1 | Cn1cnnc1C1(F)CCN(c2c(C#N)cc(C(F)(F)F)nc2-c2cnc3nc(C(C)(C)C)nn3c2)CC1 [Example 11] | 3 nM | 3 nM | 47 nM | 29 nM | 14.9 | 4.3 ×10⁻⁶ cm/s
2 | Cn1cnnc1C1(F)CCN(c2c(C#N)ccnc2-c2cnc3nn(C(C)(C)C)nc3c2)CC1 [Example 17] | 2 nM | 2 nM | 102 nM | 40 nM | 13.9 | 7.2 ×10⁻⁶ cm/s
3 | Cn1cnnc1C1(F)CCN(c2c(C#N)cc(C(F)(F)F)nc2-c2cnc3nn(C(F)(F)F)nc3c2)CC1 [Example 9] | 56 nM | 100 nM | 869 nM | 365 nM | 1.4 | 45 ×10⁻⁶ cm/s
4 | Cn1cnnc1C1(F)CCN(c2c(C#N)cc(C(F)(F)F)nc2-c2cnc3nn(C(C)(C)C)c(Cl)c3c2)CC1 [Example 3] | 1 nM | 1 nM | 14 nM | 28 nM | 1 | 47 ×10⁻⁶ cm/s
5 | Cn1cnnc1C1(F)CCN(c2c(C#N)ccnc2-c2cnc3nn(C(C)(C)C)c(C(F)(F)F)c3c2)CC1 [Example 15] | 4 nM | 3 nM | 69 nM | 66 nM | 1.6 | 35 ×10⁻⁶ cm/s
6 | Cn1cnnc1C1(F)CCN(c2c(C#N)cc(C(F)(F)F)nc2-c2cnc3nn(C(C)(C)C)c(F)c3c2)CC1 [Example 2] | 1 nM | 1 nM | 17 nM | 53 nM | 4.9 | 16 ×10⁻⁶ cm/s
7 | Cn1cnnc1C1CCN(c2c(C#N)cc(C(F)(F)F)nc2-c2cnc3nn(C(C)(C)C)c(C(F)(F)F)c3c2)CC1 [Example 13] | 8 nM | 16 nM | 54 nM | 70 nM | 5.7 | 3.7 ×10⁻⁶ cm/s
8 | Cn1cnnc1C1(F)CCN(c2c(C#N)cc(C(F)(F)F)nc2-c2cnc3nn(C(C)(C)C)c(C(F)(F)F)c3c2)CC1 [Example 4] | 9 nM | 5 nM | 31 nM | 46 nM | 0.6 | 99.5 ×10⁻⁶ cm/s
9 | Cn1cnnc1C1(F)CCN(c2c(C#N)cc(C(F)(F)F)nc2-c2cnc3nn(C(C)(C)C)nc3c2)CC1 [Example 8] | 5 nM | 4 nM | 67 nM | 29 nM | 2.6 | 31 ×10⁻⁶ cm/s

Continued, values first:

Row | IC50 (QPCTL) | IC50 (QPCT) | IC50 [1] | IC50 [2] | efflux ratio at 2 h [3] | Papp A→B at 2 h [3] | SMILES
10 | 3 nM | 10 nM | 154 nM | 43 nM | 3.6 | 17 ×10⁻⁶ cm/s | Cn1cnnc1C1(F)CCN(c2c(C#N)cc(C(F)F)nc2-c2ccc(F)nc2)CC1 [Example 35]
11 | 1 nM | 1 nM | 13 nM | 26 nM | 2.2 | 31 ×10⁻⁶ cm/s | Cn1cnnc1C1(F)CCN(c2c(C#N)cc(C(C)(F)F)nc2-c2cnc3nn(C(C)(C)C)c(F)c3c2)CC1 [Example 33]
12 | 1 nM | < 1 nM | 9 nM | 13 nM | 13.3 | 5.8 ×10⁻⁶ cm/s | Cn1cnnc1C1(F)CCN(c2c(C#N)cc(Cl)nc2-c2cnc3nn(C(C)(C)C)cc3c2)CC1 [Example 36]
13 | 2 nM | 6 nM | 95 nM | 35 nM | 2.2 | 23 ×10⁻⁶ cm/s | Cn1cnnc1C1(F)CCN(c2c(C#N)cc(Cl)nc2-c2ccc(F)nc2)CC1 [Example 37]
14 | 2 nM | 4 nM | 87 nM | 41 nM | 1.4 | 62 ×10⁻⁶ cm/s | Cn1cnnc1C1(F)CCN(c2c(C#N)cc(C3CC3)nc2-c2ccc(F)nc2)CC1 [Example 31]
15 | 13 nM | 35 nM | 1370 nM | 615 nM | 4.5 | 14 ×10⁻⁶ cm/s | Cc1cncc(-c2nccc(C#N)c2N2CCC(F)(c3nncn3C)CC2)c1 [Example 20]
16 | 5 nM | 15 nM | 435 nM | 218 nM | 1.6 | 34 ×10⁻⁶ cm/s | Cn1cnnc1C1(F)CCN(c2c(C#N)ccnc2-c2cnc(F)cc2Cl)CC1 [Example 22]
17 | 1 nM | < 1 nM | 7 nM | 12 nM | 3.8 | 19 ×10⁻⁶ cm/s | Cn1cnnc1C1(F)CCN(c2c(C#N)cc(C3CC3)nc2-c2cnc3nn(C(C)(C)C)cc3c2)CC1 [Example 28]
18 | 33 nM | 52 nM | 942 nM | 292 nM | 2.8 | 27 ×10⁻⁶ cm/s | Cn1cnnc1C1(F)CCN(c2c(C#N)ccnc2-c2cnc3nn(C(F)(F)F)nc3c2)CC1 [Example 18]
